Structures can show the parent of a compound that is named as a salt.
Columns and labels:
[1] = Formation of formazan dyes: NADH and 1-methoxy PMS, absence of malate (TABLE 15); type: biochemical; conditions: NADH and 1-methoxy PMS, absence of malate, mean of three experiments
[2] = system: Malate dehydrogenase and diaphorase; test: Formation of formazan dyes: Malate dehydrogenase, diaphorase and malate (TABLE 10); type: biochemical, pig heart
[3] = system: Malate dehydrogenase and diaphorase; test: Formation of formazan dyes: Malate dehydrogenase and diaphorase, absence of malate (TABLE 9); type: biochemical, pig heart
diaphorase [4] = test: Formation of formazan dyes: only diaphorase, not malate (TABLE 13); type: biochemical, Clostridium kluyveri; conditions: mean of three experiments
oral lavage [5] = test: Formation of formazan dyes: oral lavage, malate and 1-Methoxy PMS (TABLE 20); type: biochemical, human; conditions: oral lavage, malate and 1-Methoxy PMS, mean of three experiments
[6] = Formation of formazan dyes: control buffer and 1-Methoxy PMS, absence of malate (TABLE 21); type: biochemical; conditions: for Absorbance, formation of formazan dyes (Means): control buffer and 1-Methoxy PMS, absence of malate, mean of three experiments
Malate dehydrogenase = target: T1, Malate dehydrogenase (Sus scrofa, UniProt P00346); test: Formation of formazan dyes: Malate dehydrogenase, malate and 1-Methoxy PMS (TABLE 18); type: biochemical, pig heart; parameters: L-malate dehydrogenase (pig heart); purchased Sigma-Aldrich 10127248001 / 10127914001; conditions: Malate dehydrogenase, malate and 1-Methoxy PMS, mean of three experiments
T1 sequence (P00346 25-338): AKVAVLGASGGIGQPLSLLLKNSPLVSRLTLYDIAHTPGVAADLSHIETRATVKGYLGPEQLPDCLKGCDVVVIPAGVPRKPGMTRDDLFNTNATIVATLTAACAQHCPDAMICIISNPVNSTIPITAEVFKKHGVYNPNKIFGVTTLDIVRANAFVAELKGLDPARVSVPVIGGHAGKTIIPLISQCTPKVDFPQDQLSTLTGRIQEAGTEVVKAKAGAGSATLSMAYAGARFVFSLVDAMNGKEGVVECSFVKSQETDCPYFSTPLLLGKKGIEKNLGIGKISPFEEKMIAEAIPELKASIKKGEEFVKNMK

oral lavage [7] = test: Formation of formazan dyes: oral lavage, malate and diaphorase (TABLE 12); type: biochemical, human; conditions: oral lavage, malate and diaphorase
[8] = Formation of formazan dyes: NADH, malate and 1-methoxy PMS (TABLE 16); type: biochemical; conditions: NADH, malate and 1-methoxy PMS, mean of three experiments
oral lavage [9] = test: Formation of formazan dyes: oral lavage and 1-Methoxy PMS, absence of malate (TABLE 19); type: biochemical, human; conditions: oral lavage and 1-Methoxy PMS, absence of malate, mean of three experiments
[10] = Formation of formazan dyes: control buffer, malate and 1-Methoxy PMS (TABLE 22); type: biochemical; conditions: control buffer, malate and 1-Methoxy PMS, mean of three experiments
diaphorase [11] = test: Effect of concentrations of tetrazolium salts on formation of formazan dyes (FIGS. 4A-4G); type: biochemical; conditions: 15 mM NADH+H, 20 μg diaphorase, pH 7.5; FIGS. 4A to 4G
Procedure: On the idea that higher concentrations of tetrazolium salts in the assay buffer would likely result in more formazan dyes in the reaction, various concentrations of tetrazolium salts were added to a reaction buffer and the formation of formazan dyes were measured at 0, 30 and 60 minutes. […] The reactions were performed at room temperature. Absorbance was taken at 0, 30 and 60 minutes.

For `Cc1nc(-[n+]2nc(-c3cccc(OCC(=O)O)c3)nn2-c2ccc(S(=O)(=O)[O-])cc2)sc1C` [MTS, 3-(4,5-dimethylthiazol-2-yl)-5-(3-carboxymethoxyphenyl)-2-(4-sulfophenyl)-2H-tetrazolium, inner salt], the “Absorbance, formation of formazan dyes (Means)” value (“Absorbance, formation” for short) ([1]; 0 h) was 2.31, the “Absorbance, formation” value ([1]; 1 h) was 2.55 and the “Absorbance, formation” value ([1]; 2 h) was 2.60. The “Absorbance, formation” value ([1]; 3 h) was 2.59, the “Absorbance, formation” value ([1]; 4 h) was 2.63 and the “Absorbance, formation” value ([1]; 6 h) was 2.65. For the same molecule, the “Absorbance, formation” value ([1]; 8 h) was 2.69, the “Absorbance, formation” value ([1]; 10 h) was 2.67 and the “Absorbance, formation” value ([1]; 12 h) was 2.65. For the same molecule, the “Formation of formazan dyes, absorbance, Means 0 h” value (“Formation … Means 0 h” below) ([2]; Malate dehydrogenase, diaphorase and malate, 0 h) was 1.72, the “Formation of formazan dyes, absorbance, Means 1 h” value (“Formation … Means 1 h” for short) ([2]; Malate dehydrogenase, diaphorase and malate, 1 h) was 2.67 and the “Formation of formazan dyes, absorbance, Means 2 h” value (from here on “Formation … Means 2 h”) ([2]; Malate dehydrogenase, diaphorase and malate, 2 h) was 2.93. The “Formation of formazan dyes, absorbance, Means 3 h” value (from here on “Formation … Means 3 h”) ([2]; Malate dehydrogenase, diaphorase and malate, 3 h) was 3.12, the “Formation of formazan dyes, absorbance, Means 4 h” value (from here on “Formation … Means 4 h”) ([2]; Malate dehydrogenase, diaphorase and malate, 4 h) was 3.48 and the “Formation of formazan dyes, absorbance, Means 6 h” value (from here on “Formation … Means 6 h”) ([2]; Malate dehydrogenase, diaphorase and malate, 6 h) was 3.67. The “Formation of formazan dyes, absorbance, Means 8 h” value (from here on “Formation … Means 8 h”) ([2]; Malate dehydrogenase, diaphorase and malate, 8 h) was 3.73, the “Formation of formazan dyes, absorbance, Means 10 h” value (from here on “Formation … Means 10 h”) ([2]; Malate dehydrogenase, diaphorase and malate, 10 h) was 3.74 and the “Formation of formazan dyes, absorbance, Means 12 h” value (shortened to “Formation … Means 12 h”) ([2]; Malate dehydrogenase, diaphorase and malate, 12 h) was 3.71. The “conversion to reduced formazan dyes” value ([2]; malate dehydrogenase, diaphorase and malate (TABLE 10)) was “converted to reduced formazan dyes in a time-dependent manner”, the “Formation … Means 0 h” value ([3]; Malate dehydrogenase and diaphorase, absence of malate, 0 h) was 0.17 and the “Formation … Means 1 h” value ([3]; Malate dehydrogenase and diaphorase, absence of malate, 1 h) was 0.24. The “Formation … Means 2 h” value ([3]; Malate dehydrogenase and diaphorase, absence of malate, 2 h) was 0.22, the “Formation … Means 3 h” value ([3]; Malate dehydrogenase and diaphorase, absence of malate, 3 h) was 0.25 and the “Formation … Means 4 h” value ([3]; Malate dehydrogenase and diaphorase, absence of malate, 4 h) was 0.21. The “Formation … Means 6 h” value ([3]; Malate dehydrogenase and diaphorase, absence of malate, 6 h) was 0.22, the “Formation … Means 8 h” value ([3]; Malate dehydrogenase and diaphorase, absence of malate, 8 h) was 0.23 and the “Formation … Means 10 h” value ([3]; Malate dehydrogenase and diaphorase, absence of malate, 10 h) was 0.26. For the same molecule, the “Formation … Means 12 h” value ([3]; Malate dehydrogenase and diaphorase, absence of malate, 12 h) was 0.25, the “reduction of tetrazolium dye in the absence of substrate malate” value ([3]; malate dehydrogenase and diaphorase (TABLE 9)) was “remained largely in oxidized forms” and the “Absorbance, formation” value (diaphorase [4]; 0 h) was 0.16. The “Absorbance, formation” value (diaphorase [4]; 1 h) was 0.25, the “Absorbance, formation” value (diaphorase [4]; 2 h) was 0.26 and the “Absorbance, formation” value (diaphorase [4]; 3 h) was 0.22. For the same molecule, the “Absorbance, formation” value (diaphorase [4]; 4 h) was 0.17, the “Absorbance, formation” value (diaphorase [4]; 6 h) was 0.20 and the “Absorbance, formation” value (diaphorase [4]; 8 h) was 0.16. The “Absorbance, formation” value (diaphorase [4]; 10 h) was 0.13, the “Absorbance, formation” value (diaphorase [4]; 12 h) was 0.14 and the “Absorbance, formation” value (oral lavage [5]; 0 h) was 0.78. For the same molecule, the “Absorbance, formation” value (oral lavage [5]; 1 h) was 1.33, the “Absorbance, formation” value (oral lavage [5]; 2 h) was 1.69 and the “Absorbance, formation” value (oral lavage [5]; 3 h) was 1.90. The “Absorbance, formation” value (oral lavage [5]; 4 h) was 1.87, the “Absorbance, formation” value (oral lavage [5]; 6 h) was 2.27 and the “Absorbance, formation” value (oral lavage [5]; 8 h) was 2.60. The “Absorbance, formation” value (oral lavage [5]; 10 h) was 2.89, the “Absorbance, formation” value (oral lavage [5]; 12 h) was 3.22 and the “Absorbance, formation” value ([6]; 0 h) was 0.36. The “Absorbance, formation” value ([6]; 1 h) was 0.42, the “Absorbance, formation” value ([6]; 2 h) was 0.41 and the “Absorbance, formation” value ([6]; 3 h) was 0.43. For the same molecule, the “Absorbance, formation” value ([6]; 4 h) was 0.43, the “Absorbance, formation” value ([6]; 6 h) was 0.48 and the “Absorbance, formation” value ([6]; 8 h) was 0.59. The “Absorbance, formation” value ([6]; 10 h) was 0.63, the “Absorbance, formation” value ([6]; 12 h) was 0.66 and the “conversion into colored formazan dyes in assay buffer containing 1-methoxy PMS” value ([6]; control buffer, absence of malate (TABLE 21) or presence of malate (TABLE 22)) was “slowly catalyze the conversion of tetrazolium salts into colored formazan dyes”. For the same molecule, the “Absorbance, formation” value (Malate dehydrogenase; 0 h) was 2.40, the “Absorbance, formation” value (Malate dehydrogenase; 1 h) was 3.33 and the “Absorbance, formation” value (Malate dehydrogenase; 2 h) was 3.42. For the same molecule, the “Absorbance, formation” value (Malate dehydrogenase; 3 h) was 3.38, the “Absorbance, formation” value (Malate dehydrogenase; 4 h) was 3.38 and the “Absorbance, formation” value (Malate dehydrogenase; 6 h) was 3.27. For the same molecule, the “Absorbance, formation” value (Malate dehydrogenase; 8 h) was 3.26, the “Absorbance, formation” value (Malate dehydrogenase; 10 h) was 3.18 and the “Absorbance, formation” value (Malate dehydrogenase; 12 h) was 3.09. For the same molecule, the “Formation … Means 0 h” value (oral lavage [7]; 0 h) was 0.68, the “Formation … Means 1 h” value (oral lavage [7]; 1 h) was 0.93 and the “Formation … Means 2 h” value (oral lavage [7]; 2 h) was 1.07. For the same molecule, the “Formation … Means 3 h” value (oral lavage [7]; 3 h) was 1.14, the “Formation … Means 4 h” value (oral lavage [7]; 4 h) was 1.34 and the “Formation … Means 6 h” value (oral lavage [7]; 6 h) was 1.56. For the same molecule, the “Formation … Means 8 h” value (oral lavage [7]; 8 h) was 1.84, the “Formation … Means 10 h” value (oral lavage [7]; 10 h) was 2.10 and the “Formation … Means 12 h” value (oral lavage [7]; 12 h) was 2.27. For the same molecule, the “Absorbance, formation” value ([8]; 0 h) was 2.33, the “Absorbance, formation” value ([8]; 1 h) was 2.41 and the “Absorbance, formation” value ([8]; 2 h) was 2.44. The “Absorbance, formation” value ([8]; 3 h) was 2.47, the “Absorbance, formation” value ([8]; 4 h) was 2.27 and the “Absorbance, formation” value ([8]; 6 h) was 2.38. The “Absorbance, formation” value ([8]; 8 h) was 2.41, the “Absorbance, formation” value ([8]; 10 h) was 2.45 and the “Absorbance, formation” value ([8]; 12 h) was 2.40. The “Absorbance, formation” value (oral lavage [9]; 0 h) was 0.87, the “Absorbance, formation” value (oral lavage [9]; 1 h) was 1.50 and the “Absorbance, formation” value (oral lavage [9]; 2 h) was 1.82. For the same molecule, the “Absorbance, formation” value (oral lavage [9]; 3 h) was 2.08, the “Absorbance, formation” value (oral lavage [9]; 4 h) was 1.94 and the “Absorbance, formation” value (oral lavage [9]; 6 h) was 2.32. For the same molecule, the “Absorbance, formation” value (oral lavage [9]; 8 h) was 2.51, the “Absorbance, formation” value (oral lavage [9]; 10 h) was 2.66 and the “Absorbance, formation” value (oral lavage [9]; 12 h) was 2.74. The “Means absorbance 0 h” value ([10]; 0 h) was 0.20, the “Means absorbance 1 h” value ([10]; 1 h) was 0.20 and the “Means absorbance 2 h” value ([10]; 2 h) was 0.21. For the same molecule, the “Means absorbance 3 h” value ([10]; 3 h) was 0.23, the “Means absorbance 4 h” value ([10]; 4 h) was 0.25 and the “Means absorbance 6 h” value ([10]; 6 h) was 0.33. For the same molecule, the “Means absorbance 8 h” value ([10]; 8 h) was 0.36, the “Means absorbance 10 h” value ([10]; 10 h) was 0.47 and the “Means absorbance 12 h” value ([10]; 12 h) was 0.50. For the same molecule, the “concentration of tetrazolium salt at which absorbance reached peaks” value (diaphorase [11]) was “around 1.5 mM”.

From patent US20180320217A1, “METHODS FOR SAMPLING AND MEASURING ORAL LAVAGE PROTEINS” (The Procter & Gamble Company, priority 2017, published 2018)
